Where “and” joins values, the source holds several entries; their conditions need not be identical. Equal values may be shown once.
Legend:
[1] = tested on: 22Rv1 (human prostate cancer); assay: Sulforhodamine B (SRB) viability assay, 22Rv1; format: cell-based
Description: (§1) Three different viability assays were chosen to complement each other and yielded results dependent on concentration and cell line: the Methyl Tetrazolium dye assay, the Sulforhodamine B fluorescent dye assay, and the Crystal Violet dye assay.
(§2) The Sulforhodamine B and Crystal Violet assays provide information about protein and were used to complement the Methyl-Tetrazolium dye assay. […] It is used for the quantification of cellular proteins of cultured cells. The assay using Crystal Violet, a dye that binds electrostatically to proteins and stains DNA, provides a reliable, simple assay for measuring viability of cells.
(§3) The Methyl Tetrazolium, Sulforhodamine B, and Crystal Violet assays were used to assess cell viabilities. The incubation times were 24 hours, 48 hours, and 72 hours. The Nerium oleander extract Anvirzel™ (a hot water extract of oleander obtained from Salud Integral, Honduras) was tested in concentrations ranging from 0.01 ng/mL to 10 ng/mL.
(§4) Cells were detached by trypsinization (Trypsin-0.25% EDTA, Invitrogen, 25200-072) during the logarithmic phase of culture growth and plated in 96-well plates (18.000 cells/well) (Corning, Costar 359) in a final volume of 200 μl of medium per well. […] The absorbance was measured after 24 hours, 48 hours, and 72 hours of incubation.
For the Sulforhodamine B assay, 96-well plates were fixed by 10% trichloroacetic acid (Fluka, 91228) and were incubated at 4° C. for 1 hour. Afterwards, plates were rinsed with water and cells were stained with 0.4% Sulforhodamine B (Sigma, 341738), dissolved in 1% acetic acid (Carlo Ebra, 401422) for 15 minutes at room temperature (RT). The unbound stain was washed twice with 1% acetic acid. Finally, 10 mM Tris Buffer pH 10.5 (Sigma, T6791) was added to dissolve the dye.
(§5) The optical density of each plate was measured on a μQuant spectrophotometer and the data were analyzed with Gen5 software (μQuant Biomolecular Spectrophotometer MQX200 and Gen5™ Microplate Data Collection & Analysis software, BioTek® Instruments. Inc, April 2008). Absorbance was measured at 570 nm for all assays and a second wavelength was measured in order to subtract noise. For the Methyl-Tetrazolium assay this second wavelength was 630 nm and for the Sulforhodamine B and Crystal Violet assays it was 690 nm.

[2] = tested on: COLO699N lung cancer cell line; assay: Crystal Violet viability assay, COLO699N; format: cell-based, human; design: key to CVE Average: absorbance at 570 nm (crystal violet), background wavelength subtracted; settings: for Average CVE 24 h / Average CVE 48 h / Average CVE 72 h: COLO699N Run 1; for ABSORBANCE: COLO699N, 0.1 μg/mL cisplatin
Description: as §1, §2, §3, §4
(§6) For the Crystal Violet assay, the medium was removed from the 96-well plates, the plates rinsed with PBS (Sigma, P3813) and then the cells were […] by the addition of 10% formalin (MERCK, 1.04003.2500) for 20 minutes at RT. Formalin was removed and 0.25% aqueous crystal violet (Sigma, HT901), dissolved in water, was added for 10 minutes at RT. Unbound Crystal Violet was rinsed by washing with water and finally 33% acetic acid was added to dissolve the dye.
as §5

[3] = tested on: CALU-1 (non-small cell lung carcinoma); assay: Crystal Violet viability assay, CALU-1; format: cell-based, human
Description: as §2, §3, §4, §6, §5

SMILES: N.N.[Cl][Pt][Cl] [cisplatin]
- SRB 24 h Average ([1]; 22Rv1 Run 1, 0.1 μg/ml CDDP): 1.847
- SRB 48 h Average ([1]; 22Rv1 Run 1, 0.1 μg/ml CDDP): 1.685
- SRB 72 h Average ([1]; 22Rv1 Run 1, 0.1 μg/ml CDDP): 2.018
- SRB 24 h Average ([1]; 22Rv1 Run 1, 1 μg/ml CDDP): 1.943
- SRB 48 h Average ([1]; 22Rv1 Run 1, 1 μg/ml CDDP): 1.549
- SRB 72 h Average ([1]; 22Rv1 Run 1, 1 μg/ml CDDP): 1.56
- SRB 24 h Average ([1]; 22Rv1 Run 1, 10 μg/ml CDDP): 1.744
- SRB 48 h Average ([1]; 22Rv1 Run 1, 10 μg/ml CDDP): 1.217
- SRB 72 h Average ([1]; 22Rv1 Run 1, 10 μg/ml CDDP): 1.141
- SRB 24 h Average ([1]; 22Rv1 Run 1, 100 μg/ml CDDP): 1.878
- SRB 48 h Average ([1]; 22Rv1 Run 1, 100 μg/ml CDDP): 1.121
- SRB 72 h Average ([1]; 22Rv1 Run 1, 100 μg/ml CDDP): 1.204
- SRB 24 h Average ([1]; 22Rv1 Run 2, 0.1 μg/ml CDDP): 1.727
- SRB 48 h Average ([1]; 22Rv1 Run 2, 0.1 μg/ml CDDP): 2.139
- SRB 72 h Average ([1]; 22Rv1 Run 2, 0.1 μg/ml CDDP): 2.392
- SRB 24 h Average ([1]; 22Rv1 Run 2, 1 μg/ml CDDP): 1.647
- SRB 48 h Average ([1]; 22Rv1 Run 2, 1 μg/ml CDDP): 1.824
- SRB 72 h Average ([1]; 22Rv1 Run 2, 1 μg/ml CDDP): 1.395
- SRB 24 h Average ([1]; 22Rv1 Run 2, 10 μg/ml CDDP): 1.49
- SRB 48 h Average ([1]; 22Rv1 Run 2, 10 μg/ml CDDP): 1.46
- SRB 72 h Average ([1]; 22Rv1 Run 2, 10 μg/ml CDDP): 1.606
- SRB 24 h Average ([1]; 22Rv1 Run 2, 100 μg/ml CDDP): 1.495
- SRB 48 h Average ([1]; 22Rv1 Run 2, 100 μg/ml CDDP): 1.621
- SRB 72 h Average ([1]; 22Rv1 Run 2, 100 μg/ml CDDP): 1.247
- Average absorbance, SRB 24 h ([1]; 22Rv1 Run 3, 0.1 μg/ml CDDP): 1.352 and 0.85
- Average CVE 24 h ([2]; 0.1 μg/ml CDDP): 0.303
- Average CVE 48 h ([2]; 0.1 μg/ml CDDP, 48 h): 0.393
- Average CVE 72 h ([2]; 0.1 μg/ml CDDP, 72 h): 0.418
- Average CVE 24 h ([2]; 1 μg/ml CDDP): 0.222
- Average CVE 48 h ([2]; 1 μg/ml CDDP, 48 h): 0.136
- Average CVE 72 h ([2]; 1 μg/ml CDDP, 72 h): 0.313
- Average CVE 24 h ([2]; 10 μg/ml CDDP): 0.313
- Average CVE 48 h ([2]; 10 μg/ml CDDP, 48 h): 0.47
- Average CVE 72 h ([2]; 10 μg/ml CDDP, 72 h): 0.256
- Average CVE 24 h ([2]; 100 μg/ml CDDP): 0.223
- Average CVE 48 h ([2]; 100 μg/ml CDDP, 48 h): 0.189
- Average CVE 72 h ([2]; 100 μg/ml CDDP, 72 h): 0.172
- ABSORBANCE ([2]; 48 h): 0.801
- ABSORBANCE ([2]; 72 h): 1
- CVE Average ([2]; Run 2, 24 h, 0.1 μg/ml CDDP): 0.551
- CVE Average ([2]; Run 2, 24 h, 1 μg/ml CDDP): 0.232
- CVE Average ([2]; Run 2, 24 h, 10 μg/ml CDDP): 0.504
- CVE Average ([2]; Run 2, 24 h, 100 μg/ml CDDP): 0.266
- CVE Average ([2]; Run 2, 48 h, 0.1 μg/ml CDDP): 0.801
- CVE Average ([2]; Run 2, 48 h, 1 μg/ml CDDP): 0.311
- CVE Average ([2]; Run 2, 48 h, 10 μg/ml CDDP): 0.205
- CVE Average ([2]; Run 2, 48 h, 100 μg/ml CDDP): 0.287
- CVE Average ([2]; Run 2, 72 h, 0.1 μg/ml CDDP): 1
- CVE Average ([2]; Run 2, 72 h, 1 μg/ml CDDP): 0.337
- CVE Average ([2]; Run 2, 72 h, 10 μg/ml CDDP): 0.127
- CVE Average ([2]; Run 2, 72 h, 100 μg/ml CDDP): 0.268
- CVE Average ([2]; Run 3, 24 h, 0.1 μg/ml CDDP): 0.675
- CVE Average ([2]; Run 3, 24 h, 1 μg/ml CDDP): 0.194
- CVE Average ([2]; Run 3, 24 h, 10 μg/ml CDDP): 0.398
- CVE Average ([2]; Run 3, 24 h, 100 μg/ml CDDP): 0.224
- CVE Average ([2]; Run 3, 48 h, 0.1 μg/ml CDDP): 0.624
- CVE Average ([2]; Run 3, 48 h, 1 μg/ml CDDP): 0.815
- CVE Average ([2]; Run 3, 48 h, 10 μg/ml CDDP): 0.199
- CVE Average ([2]; Run 3, 48 h, 100 μg/ml CDDP): 0.185
- CVE Average ([2]; Run 3, 72 h, 0.1 μg/ml CDDP): 0.759
- CVE Average ([2]; Run 3, 72 h, 1 μg/ml CDDP): 0.295
- CVE Average ([2]; Run 3, 72 h, 10 μg/ml CDDP): 0.155
- CVE Average ([2]; Run 3, 72 h, 100 μg/ml CDDP): 0.393
- Average CVE 24 h ([3]; CALU-1 Run 1, 0.1 μg/ml CDDP): 0.554
- Average CVE 48 h ([3]; CALU-1 Run 1, 0.1 μg/ml CDDP): 0.652
- Average CVE 72 h ([3]; CALU-1 Run 1, 0.1 μg/ml CDDP): 0.441
- Average CVE 24 h ([3]; CALU-1 Run 1, 1 μg/ml CDDP): 0.231
- Average CVE 48 h ([3]; CALU-1 Run 1, 1 μg/ml CDDP): 0.661
- Average CVE 72 h ([3]; CALU-1 Run 1, 1 μg/ml CDDP): 0.135
- Average CVE 24 h ([3]; CALU-1 Run 1, 10 μg/ml CDDP): 0.421
- Average CVE 48 h ([3]; CALU-1 Run 1, 10 μg/ml CDDP): 0.503
- Average CVE 72 h ([3]; CALU-1 Run 1, 10 μg/ml CDDP): 0.157
- Average CVE 24 h ([3]; CALU-1 Run 1, 100 μg/ml CDDP): 0.306
- Average CVE 48 h ([3]; CALU-1 Run 1, 100 μg/ml CDDP): 0.409
- Average CVE 72 h ([3]; CALU-1 Run 1, 100 μg/ml CDDP): 0.125
- Average CVE 24 h ([3]; CALU-1 Run 2, 0.1 μg/ml CDDP): 0.484
- Average CVE 48 h ([3]; CALU-1 Run 2, 0.1 μg/ml CDDP): 0.886
- Average CVE 72 h ([3]; CALU-1 Run 2, 0.1 μg/ml CDDP): 0.786
- Average CVE 24 h ([3]; CALU-1 Run 2, 1 μg/ml CDDP): 0.576
- Average CVE 48 h ([3]; CALU-1 Run 2, 1 μg/ml CDDP): 0.563
- Average CVE 72 h ([3]; CALU-1 Run 2, 1 μg/ml CDDP): 0.214
- Average CVE 24 h ([3]; CALU-1 Run 2, 10 μg/ml CDDP): 0.64
- Average CVE 48 h ([3]; CALU-1 Run 2, 10 μg/ml CDDP): 0.46
- Average CVE 72 h ([3]; CALU-1 Run 2, 10 μg/ml CDDP): 0.254
- Average CVE 24 h ([3]; CALU-1 Run 2, 100 μg/ml CDDP): 0.416
- Average CVE 48 h ([3]; CALU-1 Run 2, 100 μg/ml CDDP): 0.352
- Average CVE 72 h ([3]; CALU-1 Run 2, 100 μg/ml CDDP): 0.344
- Average CVE 24 h ([3]; CALU-1 Run 3, 0.1 μg/ml CDDP, 24 h): 0.492
- Average CVE 48 h ([3]; CALU-1 Run 3, 0.1 μg/ml CDDP, 48 h): 0.389
- Average CVE 72 h ([3]; CALU-1 Run 3, 0.1 μg/ml CDDP, 72 h): 0.505
- Average CVE 24 h ([3]; CALU-1 Run 3, 1 μg/ml CDDP, 24 h): 0.255
- Average CVE 72 h ([3]; CALU-1 Run 3, 1 μg/ml CDDP, 72 h): 0.184
- Average CVE 24 h ([3]; CALU-1 Run 3, 10 μg/ml CDDP, 24 h): 0.558
- Average CVE 48 h ([3]; CALU-1 Run 3, 10 μg/ml CDDP, 48 h): 0.175
- Average CVE 72 h ([3]; CALU-1 Run 3, 10 μg/ml CDDP, 72 h): 0.189
- Average CVE 24 h ([3]; CALU-1 Run 3, 100 μg/ml CDDP, 24 h): 0.375
- Average CVE 48 h ([3]; CALU-1 Run 3, 100 μg/ml CDDP, 48 h): 0.159
- Average CVE 72 h ([3]; CALU-1 Run 3, 100 μg/ml CDDP, 72 h): 0.197

Source: US20190343908A1, “Therapeutic Combination for the Treatment of Cancer” (Nerium Biotechnology Inc., priority 2011, published 2019)
